Holding throughout (type): in vivo, C57BL/6N mice
Test [1] concerns elastase-induced emphysema model (mice). Briefly: Histological and immunohistochemical assessment of lung sections, elastase-induced emphysema. On the procedure:
(§1) Six- to eight-week-old pathogen-free female C57BL/6N mice (Charles River Laboratories) were used throughout this study. All experiments were performed in accordance with the guidelines of the Ethics Committee of the University of Giessen School of Medicine and approved by the Regierungspräsidium Giessen, Hesse, Germany. Mice had free access to water and rodent laboratory chow. Pancreatic elastase was dissolved in sterile PBS and applied orotracheally (100 U/kg BW). Control mice received 80 μl sterile PBS. Lung tissues were excised and snap-frozen or inflated with 4% (m/v) paraformaldehyde in PBS (PAA Laboratories) at 21 cm H2O pressure for histological analyses.
(§2) The WNT/β-catenin signaling pathway in lungs from C57BL/6N mice was activated via intraperitoneal injection of lithium chloride (200 mg/KG/BW/day) (22). Lithium chloride mimics members of the WNT family of signalling proteins by inhibiting the activity of GSK-3β and thus causes intracellular accumulation of β-catenin, a feature associated with the canonical WNT/β-catenin signalling pathway (23). Under these circumstances, β-catenin can enter the nucleus and influence the expression of target genes. Lithium chloride was diluted in sterile water and fresh stock was prepared for every injection. Mice were treated on a daily basis, from day 0, the day of elastase subjection to day 7 in the preventive regime, and from day 7 to 14 in the therapeutic regime, respectively. The following scheme illustrates preventive and therapeutic activation of WNT/β-catenin signaling in experimental emphysema:
Mice were subjected to a single orotracheal application of elastase, which led to the development of pulmonary emphysema from day 1 to 14. WNT/β-catenin activation by treatment with lithium chloride (LiCl) was initiated on day of elastase subjection to day 7 (referred to as preventive approach), or from day 7 to day 14 (referred to as therapeutic approach), using the indicated concentrations (daily application intraperitonal (i.p.), n=6 for each group). […]

Test [2] has the same test system. Briefly: Collagen assay (Sircol) in whole-lung homogenates, elastase-induced emphysema. To be noted: preventive approach, LiCl 200 mg/kg/day i.p. day 0-7; vehicle 29.6±4.1; p=0.042. On the procedure:
as §1
The WNT/β-catenin signaling pathway in lungs from C57BL/6N mice was activated via intraperitoneal injection of lithium chloride (200 mg/KG/BW/day) (22). Lithium chloride mimics members of the WNT family of signalling proteins by inhibiting the activity of GSK-3β and thus causes intracellular accumulation of β-catenin, a feature associated with the canonical WNT/β-catenin signalling pathway (23). […]
Whole-mouse lung homogenates were used for in vivo analysis. Total collagen content was determined using the Sircol Collagen Assay kit (Biocolor). […] Samples and collagen standards were then read at 540 nm in a spectrophotometer (Bio-Rad). Collagen concentrations were calculated using a standard curve with acid-soluble type I collagen.

Test [3] shares this test system. Briefly: qRT-PCR of ECM and alveolar epithelial cell markers in lungs, elastase-induced emphysema. The following applies: preventive approach, day 7. As to the method: as §1, §2
Mice were subjected to a single orotracheal application of elastase, which led to the development of pulmonary emphysema from day 1 to 14. WNT/β-catenin activation by treatment with lithium chloride (LiCl) was initiated on day of elastase subjection to day 7 (referred to as preventive approach), or from day 7 to day 14 (referred to as therapeutic approach), using the indicated concentrations (daily application intraperitonal (i.p.), n=6 for each group).
Total RNA was extracted using Qiagen extraction kits according to the manufacturer's protocol, and cDNAs were generated by reverse transcription using SuperScript™ II (Invitrogen). Quantitative (q)RT-PCR was performed using fluorogenic SYBR Green and the Sequence Detection System Fast 7500 (PE Applied Biosystems). HPRT1 and PBGD, ubiquitously and equally expressed genes free of pseudogenes, were used as a reference gene in all human and mouse qRT-PCR reactions, respectively. PCR was performed using the primers listed in Table 1 and 2, respectively, at a final concentration of 200 nM. Relative transcript abundance of a gene is expressed in ΔCt values (ΔCt=ct^reference−Ct^target). Relative changes in transcript levels compared to controls are ΔΔCt values (ΔΔCt=ΔCt^treated−ΔCt^control). All ΔΔCt values correspond approximately to the binary logarithm of the fold change as mentioned in the text. When relative transcript abundance is of information, expression levels are given in ΔCt levels.

For test [4] the test system is unchanged. Nature of the test: Immunoblotting and densitometry of SP-C in lung homogenates, elastase-induced emphysema. The following applies: preventive approach, LiCl 200 mg/kg/day i.p. day 0-7; vehicle 0.36±0.06; p=0.0231. As to the method: as §1
as §2, with “Mice were treated on a daily basis, from day 0, the day of elastase subjection to day 7 in the preventive regime, and from day 7 to 14 in the therapeutic regime, respectively. The following scheme illustrates preventive and therapeutic activation of WNT/β-catenin signaling in experimental emphysema:” left out
(A western blot detects proteins with antibodies after separation by electrophoresis.)

The test system is the same in test [5]. Nature of the test: Quantitative morphometry of lung structure in elastase-induced emphysema. As to the method: as §1
The WNT/β-catenin signaling pathway in lungs from C57BL/6N mice was activated via intraperitoneal injection of lithium chloride (200 mg/KG/BW/day) (22). […]
To assess air space enlargement, the mean chord length (MCL) was quantified by superimposing a line grid on the images of lung sections at a magnification of 200×. Points on the lines of the grid hitting the air spaces, and intercepts of the lines with alveolar septa were counted to calculate MCL according to the formula: MCL=ΣPair×L(p)/(Isepta/2) (μm), where ΣPair is the sum of the points of the grid overlaid air spaces, L(p) is the line length per point and Isepta is the sum of the intercepts of alveolar septa with the lines of the grid. For the morphometric assessment of alveolar surface area per unit volume of lung parenchyma (Sv) were determined by counting the number of points that fell on alveolar septal tissue and alveolar space, and by counting the number of intercepts with alveolar septal surface at a magnification of 200× according to the following formulas: Sv=2×Isepta/(ΣPpar×L(p)/3) (1 μm), where ΣPpar is the sum of the points of hitting parenchyma, L(p) is the line length per test point in μm, and Isepta the sum of the intercepts with alveolar septa.

`[Cl-].[Li+]` [LiCl, Lithium chloride]: the “immunohistochemical staining for SP-C, WNT3a and β-catenin” value in test [1] (preventive approach, compared with vehicle-treated mice) was “increased appearance of SP-C-positive cells with enhanced staining of the WNT/β-catenin signaling component WNT3a as well as nuclear β-catenin staining”. Further, the “histological assessment of the lung structure” value in test [1] (preventive approach, day 0-7, H&E staining) is given as “marked attenuated emphysematous changes”; in test [1] (therapeutic approach, day 7-14, H&E staining), “marked attenuation of emphysema along with restored lung architecture”. The “total collagen content in lung homogenates” value in test [2] came to 16.1 µg/mL. Moreover, in test [3] (p=0.003), the “cadherin 1 (cdh1) mRNA, log-fold change LiCl-treated versus untreated lungs” value is listed as 0.97±0.20. Further, the “aquaporin 5 (aqp5) mRNA, log-fold change LiCl-treated versus untreated lungs” value in test [3] (p=0.025) turned out to be 0.63±0.18. Also, the “thyroid transcription factor 1 (ttf1) mRNA, log-fold change LiCl-treated versus untreated lungs” value in test [3] (p=0.033) was 1.20±0.30. Moreover, in test [3] (p=0.0475), the “SP-C mRNA, log-fold change LiCl-treated versus untreated lungs” value is on record as −1.21±0.42. Moreover, in test [3] (p=0.0496), the “mRNA of type I collagen α1 (col1a1), log-fold change LiCl-treated versus untreated lungs” value is listed as −0.86±0.33. For the same compound, in test [3] (p=0.146), the “forkhead box P2 (foxp2) mRNA, log-fold change LiCl-treated versus untreated lungs” value came to 1.38±0.59. Moreover, the “SP-C protein expression (immunoblot densitometry)” value in test [4] came out at 0.62±0.05. Besides, the mean chord length in test [5] (preventive approach, LiCl 200 mg/kg/day i.p. day 0-7, vehicle 109.9±7.8, p=0.0021) is 74.0±6.6 μm; in test [5] (therapeutic approach, LiCl 200 mg/kg/day i.p. day 7-14, vehicle 106.4±2.3, p=0.021) it was 85.3±2.5. The surface area in test [5] (preventive approach, LiCl 200 mg/kg/day i.p. day 0-7, vehicle 317.8±27.5, p=0.0067) came to 560.7±55.7 cm^2.

The values above are taken from patent US20130071495A1, “INHIBITORS OF GLYCOGEN SYNTHASE KINASE 3 FOR USE IN THERAPEUTIC METHODS AND SCREENING METHOD RELATING THERETO” (Helmholtz Zentrum Muenchen Deutsches Forschungszentrum fuer …, priority 2010, published 2013).
